Results reported in US10421718B2, “EBNA1 inhibitors and their method of use” (priority 2013, dated 2019).
Counter-ions that a name gives are not always drawn.

The molecules below were run against T1, His-EBNA1 (DNA binding domain of EBNA1, amino acids 459-607) (Epstein-Barr virus, UniProt P03211) (assay: Inhibition of 5′-biotin-oPL4624 binding to His-EBNA1 using Alpha Screen technology). Details: Alpha Screen Activity (IC50, inhibition of 5′-biotin-oPL4624 binding to His-EBNA1), 15 nM His-EBNA1, 0.2 nM bt-oPL4624, 2 hr room temperature.
T1 construct: made in house; host or cells: E. coli
T1 sequence (P03211 459-607): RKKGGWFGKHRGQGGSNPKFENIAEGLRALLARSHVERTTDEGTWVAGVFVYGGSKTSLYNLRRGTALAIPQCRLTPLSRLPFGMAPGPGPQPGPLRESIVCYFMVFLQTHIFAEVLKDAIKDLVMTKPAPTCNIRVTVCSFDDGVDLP
Procedure, shortened: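 His-tagged EBNA1 DNA-binding domain (aa 459-607, E. coli-expressed) at 15 nM with 0.2 nM biotinylated self-complementary oligo, streptavidin donor and nickel acceptor beads, in 25 mM Tris pH 7.2, 160 mM NaCl, 1 mM MgCl2. Compound 3.2 nM-100 μM final; AlphaScreen read after 2 h at room temperature, one-site dose-response fit.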
For `CC(C)C(O)C#Cc1cccc(C(=O)O)c1-n1cccc1` (centres unmarked) [Entry 32, 3-(3-hydroxy-4-methylpent-1-yn-1-yl)-2-(1H-pyrrol-1-yl)benzoic acid], the IC50 was 1 to 10 µM.
For `COc1cncc(-c2c(C#Cc3cccc(O)c3)cccc2C(=O)O)c1` [Entry 241, 3-((3-hydroxyphenyl)ethynyl)-2-(5-methoxypyridin-3-yl)benzoic acid], the IC50 was 10 to 100 µM.
Work on `O=C(O)c1cccc(C#Cc2cccc3nccn23)c1-n1cccc1` [Entry 13, 3-(2-{imidazo[1,2-a]pyridin-5-yl}ethynyl)-2-(1H-pyrrol-1-yl)benzoic acid] yielded an IC50 of 10 to 100 µM.
In the case of `CC(=O)NCCc1c[nH]c2cc(-c3c(C#Cc4cccc(O)c4)cccc3C(=O)O)ccc12` [Entry 223, 2-(3-(2-acetamidoethyl)-1H-indol-6-yl)-3-((3-hydroxyphenyl)ethynyl)benzoic acid], the IC50 is reported as 1 to 10 µM.
Work on `Nc1ccc2c(c1)ncn2CC#Cc1cccc(C(=O)O)c1-c1ccccc1` [Entry 258, 3-[3-(5-amino-1H-1,3-benzodiazol-1-yl)prop-1-yn-1-yl]-2-phenylbenzoic acid trifluoroacetate salt] yielded an IC50 of 1 to 10 µM.
For `O=C(O)c1cccc(C#Cc2ccccc2)c1C1CC1` [Entry 123, 2-cyclopropyl-3-(2-phenylethynyl)benzoic acid], the IC50 was 1 to 10 µM.
Work on `CN(C)Cc1ccc(-c2c(C#Cc3ccccc3)cccc2C(=O)O)cc1` [Entry 95, 2-{4-[(dimethylamino)methyl]phenyl}-3-(2-phenylethynyl)benzoic acid trifluoroacetic acid salt] yielded an IC50 of 1 to 10 µM.
For `O=C(O)c1cccc(C#CCN2CCN(c3ccccc3)CC2)c1-c1ccccc1` [Entry 159, 2-phenyl-3-[3-(4-phenylpiperazin-1-yl)prop-1-yn-1-yl]benzoic acid], the IC50 was 10 to 100 µM.
For `O=C(O)c1cccc(C#CCn2ccnc2)c1-n1cccc1` [Entry 74, 3-[3-(1H-imidazol-1-yl)prop-1-yn-1-yl]-2-(1H-pyrrol-1-yl)benzoic acid], the IC50 was less than 1 µM.
For `Cn1cc(-c2c(C#Cc3cccc(O)c3)cccc2C(=O)O)cn1` [Entry 220, 3-((3-hydroxyphenyl)ethynyl)-2-(1-methyl-1H-pyrazol-4-yl)benzoic acid], the IC50 was 1 to 10 µM.
`O=C(O)c1cccc(C#Cc2ccncc2)c1-c1cn[nH]c1` [Entry 188, 2-(1H-pyrazol-4-yl)-3-pyridin-4-ylethynyl-benzoic acid] gave an IC50 of 100 to 1000 µM.
With `O=S(=O)(c1ccccc1)n1cc(C#Cc2cccc(-c3nnn[nH]3)c2)c2ccccc21` [Entry 283, 1-benzenesulfonyl-3-[3-(1H-tetrazol-5-yl)-phenylethynyl]-1H-indole] the IC50 was less than 1 µM.
`O=C(O)c1cccc(C#Cc2ccc3[nH]ccc3c2)c1-n1cccc1` [Entry 42, 3-[2-(1H-indol-5-yl)ethynyl]-2-(1H-pyrrol-1-yl)benzoic acid] showed an IC50 of 1 to 10 µM.
Molecule `O=C(O)c1cccc(C#Cc2cc(C(=O)O)c3cc[nH]c3c2)c1` [Entry 178, 6-(3-carboxy-phenylethynyl)-1H-indole-4-carboxylic acid] has an IC50 of 1 to 10 µM.
`Cn1ncc2ccc(-c3c(C#Cc4ccccc4)cccc3C(=O)O)cc21` [Entry 139, 2-(1-methyl-1H-indazol-6-yl)-3-(2-phenylethynyl)benzoic acid] was tested, and the IC50 was 10 to 100 µM.
Molecule `C#Cc1cccc(C(=O)O)c1-n1cccc1` [Entry 47, 3-ethynyl-2-(1H-pyrrol-1-yl)benzoic acid] has an IC50 of 10 to 100 µM.
With `Cc1ccc(C#Cc2cccc(C(=O)O)c2-n2cccc2)cc1` [Entry 44, 3-[2-(4-methylphenyl)ethynyl]-2-(1H-pyrrol-1-yl)benzoic acid] the IC50 was less than 1 µM.
`Cn1ccc2ccc(-c3c(C#Cc4ccccc4)cccc3C(=O)O)cc21` [Entry 136, 2-(1-methyl-1H-indol-6-yl)-3-(2-phenylethynyl)benzoic acid] was tested, and the IC50 was 1 to 10 µM.
`COc1cc(C#Cc2cccc(C(=O)O)c2)cc(C(N)=O)c1` [Entry 184, 3-(3-carbamoyl-5-methoxy-phenylethynyl)-benzoic acid] was tested, and the IC50 was 10 to 100 µM.
Work on `O=C(O)c1cc(Cl)cc(C#Cc2ccc(F)cc2)c1-n1cccc1` [Entry 58, 5-chloro-3-[2-(4-fluorophenyl)ethynyl]-2-(1H-pyrrol-1-yl)benzoic acid] yielded an IC50 of 10 to 100 µM.
In the case of `O=C(O)c1cccc(C#CC(O)c2ccccc2)c1-n1cccc1` (centres unmarked) [Entry 33, 3-(3-hydroxy-3-phenylprop-1-yn-1-yl)-2-(1H-pyrrol-1-yl)benzoic acid], the IC50 is reported as less than 1 µM.
In the case of `CC(C)(C)C#Cc1cccc(C(=O)O)c1-n1cccc1` [Entry 49, 3-(3,3-dimethylbut-1-yn-1-yl)-2-(1H-pyrrol-1-yl)benzoic acid], the IC50 is reported as 1 to 10 µM.
`O=C(O)c1cccc(C#Cc2ccccc2)c1-c1cc2ccccc2o1` [Entry 204, 2-benzofuran-2-yl-3-phenylethynyl-benzoic acid] showed an IC50 of 1 to 10 µM.
Work on `O=C(O)c1cccc(C#Cc2cccc(O)c2)c1-c1c[nH]c2ccccc12` [Entry 276, 3-[2-(3-hydroxyphenyl)ethynyl]-2-(1H-indol-3-yl)benzoic acid] yielded an IC50 of 10 to 100 µM.
For `Nc1cccc(C#Cc2cccc(C(=O)O)c2-c2ccc3cc[nH]c3c2)n1` [Entry 239, 3-((6-aminopyridin-2-yl)ethynyl)-2-(1H-indol-6-yl)benzoic acid], the IC50 was 1 to 10 µM.
With `Nc1c(C#Cc2ccccc2)cccc1C(=O)O` [Entry 84] the IC50 was 10 to 100 µM.
With `O=C(O)c1cccc(C#Cc2ccc3cc[nH]c3n2)c1-n1cccc1` [Entry 30, 2-(1H-pyrrol-1-yl)-3-(2-{1H-pyrrolo[2,3-b]pyridin-6-yl}ethynyl)benzoic acid] the IC50 was 1 to 10 µM.
Molecule `CN(C)Cc1ccc(-c2c(C#Cc3ccccc3)cccc2C(=O)O)cc1` [Entry 207, 4′-dimethylaminomethyl-6-phenylethynyl-biphenyl-2-carboxylic acid] has an IC50 of 100 to 1000 µM.
`Nc1c(C#Cc2cccc(C(=O)O)c2)cccc1C(=O)O` [Entry 279, 2-amino-3-[2-(3-carboxyphenyl)ethynyl]benzoic acid; trifluoroacetate salt] showed an IC50 of 10 to 100 µM.
`COC(=O)c1c[nH]c2cc(-c3c(C#Cc4cscn4)cccc3C(=O)O)ccc12` [Entry 217, 2-(3-(Methoxycarbonyl)-1H-indol-6-yl)-3-(thiazol-4-ylethynyl)benzoic acid] was tested, and the IC50 was 1 to 10 µM.
`COc1ccc(C#Cc2cccc(C(=O)O)c2)cc1` [Entry 94, 3-[2-(4-methoxyphenyl)ethynyl]benzoic acid] showed an IC50 of 100 to 1000 µM.
Molecule `O=C(O)c1cccc(C#Cc2ccc(NS(=O)(=O)c3cccs3)cc2)c1-c1ccc2cc[nH]c2c1` [Entry 216, 2-(1H-indol-6-yl)-3-[4-(thiophene-2-sulfonylamino)-phenylethynyl]-benzoic acid] has an IC50 of 1 to 10 µM.
In the case of `COC(=O)c1c[nH]c2cc(-c3c(C#Cc4ccccc4)cccc3C(=O)O)ccc12` [Entry 156, 2-[3-(methoxycarbonyl)-1H-indol-6-yl]-3-(2-phenylethynyl)benzoic acid], the IC50 is reported as 1 to 10 µM.
Molecule `COc1ccc(-c2c(C#Cc3ccccc3)cccc2C(=O)O)cn1` [Entry 126, 2-(6-methoxypyridin-3-yl)-3-(2-phenylethynyl)benzoic acid] has an IC50 of 10 to 100 µM.
With `O=C(O)c1cccc(C#Cc2cccnc2)c1-n1cccc1` [Entry 69, 3-[2-(pyridin-3-yl)ethynyl]-2-(1H-pyrrol-1-yl)benzoic acid] the IC50 was 10 to 100 µM.
`O=C(O)c1cccc(C#Cc2cccc(OC(F)F)c2)c1-n1cccc1` [Entry 46, 3-{2-[3-(difluoromethoxy)phenyl]ethynyl}-2-(1H-pyrrol-1-yl)benzoic acid] showed an IC50 of 1 to 10 µM.
`O=C(O)c1cccc(C#Cc2ccc(C(=O)N3CCNCC3)cc2)c1-c1ccc2cc[nH]c2c1` [Entry 212, 2-(1H-indol-6-yl)-3-[4-(piperazine-1-carbonyl)-phenylethynyl]-benzoic acid] showed an IC50 of 1 to 10 µM.
Molecule `Cn1ccc2cc(-c3c(C#Cc4cscn4)cccc3C(=O)O)ccc21` [Entry 171] has an IC50 of 1 to 10 µM.
With `Nc1ncc(-c2c(C#Cc3ccccc3)cccc2C(=O)O)cn1` [Entry 206, 2-(2-amino-pyrimidin-5-yl)-3-phenylethynyl-benzoic acid] the IC50 was 100 to 1000 µM.
For `Cn1ncc2ccc(-c3c(C#Cc4c[nH]c5ncccc45)cccc3C(=O)O)cc21` [Entry 167, 2-(1-methyl-1H-indazol-6-yl)-3-(2-{1H-pyrrolo[2,3-b]pyridin-3-yl}ethynyl)benzoic acid], the IC50 was 10 to 100 µM.
For `O=C(O)c1cccc(C#Cc2cccc(C(=O)N3CCOCC3)c2)c1` [Entry 286, 3-[3-(morpholine-4-carbonyl)-phenylethynyl]-benzoic acid], the IC50 was 10 to 100 µM.
Work on `O=C(O)c1cc2ccc(-c3c(C#Cc4ccccc4)cccc3C(=O)O)cc2[nH]1` [Entry 250, 6-(2-carboxy-6-(phenylethynyl)phenyl)-1H-indole-2-carboxylic acid] yielded an IC50 of 1 to 10 µM.
With `O=C(O)c1cccc(C#Cc2ccc(F)c(OC3CCOCC3)c2)c1-c1ccc2cc[nH]c2c1` [Entry 256, 3-((4-fluoro-3-(tetrahydro-2H-pyran-4-yloxy)phenyl)ethynyl)-2-(1H-indol-6-yl)benzoic acid] the IC50 was 1 to 10 µM.
In the case of `Cc1ccc(-c2c(C#Cc3ccncc3)cccc2C(=O)O)cc1` [Entry 260, 2-(4-methylphenyl)-3-[2-(pyridin-4-yl)ethynyl]benzoic acid; trifluoroacetate salt], the IC50 is reported as 10 to 100 µM.
With `O=C(O)c1cccc(C#CC(O)c2ccc(F)cc2)c1-c1cccc(O)c1` (centres unmarked) [Entry 274, 3-[3-(4-fluorophenyl)-3-hydroxyprop-1-yn-1-yl]-2-(3-hydroxyphenyl)benzoic acid] the IC50 was 1 to 10 µM.
`O=C(O)c1cccc(C#Cc2cncc(O)c2)c1-n1cccc1` [Entry 40, 3-[2-(5-hydroxypyridin-3-yl)ethynyl]-2-(1H-pyrrol-1-yl)benzoic acid] was tested, and the IC50 was 10 to 100 µM.
Work on `O=C(O)c1cccc(C#Cc2cc(O)cc(F)c2)c1-n1cccc1` [Entry 38, 3-[2-(3-fluoro-5-hydroxyphenyl)ethynyl]-2-(1H-pyrrol-1-yl)benzoic acid] yielded an IC50 of less than 1 µM.
